# Measurements: ChEMBL document CHEMBL1146691, “Conformationally-flexible benzamide analogues as dopamine D3 and sigma 2 receptor ligands” (Bioorg Med Chem Lett, 2004)
# What was measured:
# [1] = molecular target: D(3) dopamine receptor (Rattus norvegicus, UniProt P19020); assay: biochemical
# [2] = molecular target: D(2) dopamine receptor (Rattus norvegicus, UniProt P61169); assay: biochemical
# [3] = molecular target: Sigma 2 receptor
# [4] = molecular target: T1, D(4) dopamine receptor (Homo sapiens, UniProt P21917)
# T1 sequence (P21917 whole entry): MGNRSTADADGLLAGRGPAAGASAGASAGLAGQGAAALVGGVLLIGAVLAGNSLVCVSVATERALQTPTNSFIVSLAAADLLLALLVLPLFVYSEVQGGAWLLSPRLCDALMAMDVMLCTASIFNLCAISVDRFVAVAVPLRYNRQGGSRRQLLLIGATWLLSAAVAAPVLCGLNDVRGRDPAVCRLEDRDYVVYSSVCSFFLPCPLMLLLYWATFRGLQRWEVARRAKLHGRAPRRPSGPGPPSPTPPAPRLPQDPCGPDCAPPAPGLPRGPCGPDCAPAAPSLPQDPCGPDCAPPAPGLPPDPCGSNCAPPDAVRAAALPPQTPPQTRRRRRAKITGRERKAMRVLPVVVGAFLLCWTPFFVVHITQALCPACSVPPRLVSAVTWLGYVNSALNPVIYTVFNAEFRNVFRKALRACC
# Sequence of D(2) dopamine receptor (P61169 whole entry): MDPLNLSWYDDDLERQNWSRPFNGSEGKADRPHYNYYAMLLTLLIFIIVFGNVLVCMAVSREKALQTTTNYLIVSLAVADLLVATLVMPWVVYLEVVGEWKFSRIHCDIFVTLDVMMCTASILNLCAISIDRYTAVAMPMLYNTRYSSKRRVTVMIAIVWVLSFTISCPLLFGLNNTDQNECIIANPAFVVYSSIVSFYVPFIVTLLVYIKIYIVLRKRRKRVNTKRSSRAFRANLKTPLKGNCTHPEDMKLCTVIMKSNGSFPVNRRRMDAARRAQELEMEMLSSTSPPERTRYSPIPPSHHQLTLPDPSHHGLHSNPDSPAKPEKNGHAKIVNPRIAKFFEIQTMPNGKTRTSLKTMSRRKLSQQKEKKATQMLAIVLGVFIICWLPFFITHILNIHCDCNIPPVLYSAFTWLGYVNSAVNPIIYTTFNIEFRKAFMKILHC
# Sequence of D(3) dopamine receptor (P19020 whole entry): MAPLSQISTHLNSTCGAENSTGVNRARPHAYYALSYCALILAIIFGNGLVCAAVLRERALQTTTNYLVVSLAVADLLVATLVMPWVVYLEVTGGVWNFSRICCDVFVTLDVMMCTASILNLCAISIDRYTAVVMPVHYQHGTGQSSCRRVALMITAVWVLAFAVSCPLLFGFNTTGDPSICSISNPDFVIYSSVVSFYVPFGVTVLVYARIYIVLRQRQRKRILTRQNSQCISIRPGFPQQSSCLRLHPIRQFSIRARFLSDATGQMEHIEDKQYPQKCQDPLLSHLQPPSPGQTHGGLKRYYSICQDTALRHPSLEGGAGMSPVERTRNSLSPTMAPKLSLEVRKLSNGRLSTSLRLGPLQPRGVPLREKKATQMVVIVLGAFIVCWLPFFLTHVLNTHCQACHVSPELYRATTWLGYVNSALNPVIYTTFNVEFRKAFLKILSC
SMILES,Ki [1],Ki [2],Ki [3],Ki [4]
COc1c(C(=O)NCCN2CCN(c3cccc(Cl)c3Cl)CC2)cc(Br)c2ccccc12,8 nM,> 10000 nM,,
O=C(NCCCCN1CCN(c2cccc(Cl)c2Cl)CC1)c1ccc2c(c1)Cc1ccccc1-2,1.4 nM,217 nM,,
O=C(NCCCCN1CCN(c2cccc(Cl)c2Cl)CC1)c1cccc2c1-c1ccccc1C2=O,1.4 nM,89 nM,,
COc1cc(Br)cc(-c2ccc(CN3CCc4ccccc4C3)[nH]2)c1OC,3.8 nM,30 nM,,
COc1cc(Br)cc(C(=O)NCCN2CCc3ccccc3C2)c1OC,,,716 nM,47.9 nM
COc1cc2c(cc1OC)CN(Cc1ccc(-c3cc(Br)cc(OC)c3OC)[nH]1)CC2,3.9 nM,33 nM,,
COc1ccc(Br)cc1C(=O)NCCN1CCc2ccccc2C1,,,89.4 nM,

# The remaining compounds from weak to strong by Ki [3], led by results:
Ki [1],Ki [2],Ki [3],Ki [4],SMILES
,,75 nM,800 nM,COc1cc(Br)cc(C(=O)NCCCCN2CCN(c3cccc(Cl)c3Cl)CC2)c1OC
0.4 nM,,70 nM,,COc1c(C(=O)NC2CCN(C3C4CC5CC(C4)CC3C5)C2)cc(Br)c2ccccc12 (stereo unspecified)
,,47.7 nM,,COc1c(C(=O)NCCN2CCc3ccccc3C2)cc(Br)c2ccccc12
,,25 nM,,COc1c(C(=O)NC[C@H]2CCCN2C2CCCCC2)cc(Br)c2ccccc12
,,21.2 nM,,COc1cc2c(cc1OC)CN(CCNC(=O)c1cc(Br)c3ccccc3c1OC)CC2
,,17.6 nM,,COc1cc2c(cc1OC)CN(CCCCNC(=O)c1cc(Br)c3ccccc3c1OC)CC2
,,16.4 nM,265 nM,COc1cc2c(cc1OC)CN(CCNC(=O)c1cc(Br)cc(OC)c1OC)CC2
,,13.3 nM,,COc1cc2c(cc1OC)CN(CCNC(=O)c1cc(C)ccc1OC)CC2
,,12.4 nM,,COc1cc2c(cc1OC)CN(CCNC(=O)c1cc(Br)ccc1OC)CC2
,,8.2 nM,,COc1cc2c(cc1OC)CN(CCCCNC(=O)c1cc(Br)cc(OC)c1OC)CC2
